Laboratory results taken from ChEMBL document CHEMBL1201862, “PubChem BioAssay data set” (2004).
Activity calls are given as the source filed them. Cut-off read from the data, not from the text of the source, for most assays here: actives have a measured EC50 and inactives only a lower limit.

Assays:
[1] = molecular target: Epstein-Barr nuclear antigen 1 (Epstein-Barr virus (strain B95-8) (HHV-4) (Human herpesvirus 4), UniProt P03211); test: inhibition of EBV nuclear antigen 1 DNA binding – biochemical, fluorescence polarization, 1536-well, dose response (AID 2381); design: species or system human gammaherpesvirus 4;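 note: fluorescence polarization of a Cy5 DNA probe bound by EBNA-1 protein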
[2] = molecular target: Lytic switch protein BZLF1 (Epstein-Barr virus (strain B95-8) (HHV-4) (Human herpesvirus 4), UniProt P03206); test: inhibition of BZLF1 ZTA DNA binding – biochemical, fluorescence polarization, Epstein-Barr virus, 1536-well, counter-screen for EBNA-1 inhibitor project, dose response (AID 2377); design: species or system human gammaherpesvirus 4;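 note: fluorescence polarization of Cy5-labelled ZRE DNA probe bound by purified Zta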
[3] = molecular target: NADPH oxidase 1 (Homo sapiens, UniProt Q9Y5S8); type: functional, cell-based;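 note: Cell-based assay with luminescence read-out, IC50 derived from inhibitor dose-response curves; intracellular ROS from endogenous NOX1 in intact HT29 colon cancer cells; potency of inhibitors that lower the ROS luminescence signal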
[4] = viability of PTEN-deleted HCT116 cells – cell-based, HCT116 PTEN knockout, dose response (AID 1047); type: functional;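 note: HCT116 colon tumor cells with PTEN knocked out; cells exposed to compound for 60 hours before readout; potency for loss of cell viability measured by luminescence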
[5] = molecular target: Protein-tyrosine kinase 2-beta (Homo sapiens, UniProt Q14289);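 note: potency of inhibitors of PYK2 kinase phosphorylation of poly-GT substrate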
[6] = viability of HCT116 lacking mutant beta-catenin – cell-based, human colon tumor, dose response (AID 1045); type: functional;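 note: HCT116 colon tumor cells with beta catenin knocked out; cells exposed to compound for 60 hours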
[7] = Trypanosoma cruzi growth suppression in host cells – NIH3T3 host cells, beta-gal luminescence, confirmation (AID 2044); type: functional, cell-based;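 note: intracellular parasites grown in NIH/3T3 mouse fibroblasts as host cells; luminescent beta-galactosidase reporter signal from transgenic T. cruzi replicating inside host cells; inhibitors lower the luminescence signal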
[8] = NIH3T3 cell viability loss – ATP luminescence, mouse fibroblasts, counter-screen, dose response (AID 2010); type: functional, cell-based;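 note: cells exposed to compound for about 90 hours before reading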
[9] = Luminescence Cell-Based Dose Response to Identify Activators of 5'UTR Stem-Loop Driven Prion Protein mRNA Translation in H4-C Neuroglioblastoma Cells. [Related pubchem assays: 1829 (Project Summary), 1814 (Primary HTS)]; type: functional
[10] = Luminescence Cell-Based Dose Response HTS to Identify Activators of Luciferase Translation or Activity in H4 […] Cells. [Related pubchem assays: 1829 (Project Summary), 1814 (Primary HTS)]; type: functional
[11] = Luminescence Cell-Based Dose Response to Identify Activators of Luciferase Translation or Activity in H4-C Neuroglioblastoma Cells. [Related pubchem assays: 1829 (Project Summary), 1814 (Primary HTS)]; type: functional
[12] = Luminescence Cell-Based Dose Confirmation to Identify Activators of 5'UTR Stem-Loop Driven Alpha-Synuclein mRNA Translation in H4 Neuroglioblastoma Cells. [Related pubchem assays: 1829 (Project Summary), 1814 (Primary HTS)]; type: functional
[13] = Luminescence Cell-Based Dose Confirmation HTS to Identify Activators of 5'UTR Stem-Loop Driven Alpha-Synuclein mRNA Translation in H4 Neuroglioblastoma Cells. [Related pubchem assays: 1829 (Project Summary), 1814 (Primary HTS)]; type: functional
[14] = tested on: H4; test: Luminescence Cell-Based Dose Response HTS to Identify Activators of 5'UTR Stem-Loop Driven Prion Protein mRNA Translation in H4 Neuroglioblastoma Cells. [Related pubchem assays: 1829 (Project Summary), 1814 (Primary HTS)]; type: functional; conditions: Homo sapiens

Chain of NADPH oxidase 1 (Q9Y5S8 whole entry): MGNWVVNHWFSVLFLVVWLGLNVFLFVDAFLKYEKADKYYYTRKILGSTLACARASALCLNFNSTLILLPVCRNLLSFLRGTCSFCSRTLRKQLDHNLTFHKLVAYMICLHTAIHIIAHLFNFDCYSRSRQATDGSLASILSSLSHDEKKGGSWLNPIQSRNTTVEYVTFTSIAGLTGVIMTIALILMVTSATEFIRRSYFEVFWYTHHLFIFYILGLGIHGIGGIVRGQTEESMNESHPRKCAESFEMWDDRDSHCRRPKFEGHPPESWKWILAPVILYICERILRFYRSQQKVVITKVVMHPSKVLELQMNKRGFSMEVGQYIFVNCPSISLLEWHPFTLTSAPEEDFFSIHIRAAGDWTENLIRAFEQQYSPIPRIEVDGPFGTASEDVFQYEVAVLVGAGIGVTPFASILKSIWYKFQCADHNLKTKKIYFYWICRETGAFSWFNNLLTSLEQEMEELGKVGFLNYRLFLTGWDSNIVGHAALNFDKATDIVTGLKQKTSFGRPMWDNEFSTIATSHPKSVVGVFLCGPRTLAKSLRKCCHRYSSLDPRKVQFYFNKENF
Chain of Lytic switch protein BZLF1 (P03206 whole entry): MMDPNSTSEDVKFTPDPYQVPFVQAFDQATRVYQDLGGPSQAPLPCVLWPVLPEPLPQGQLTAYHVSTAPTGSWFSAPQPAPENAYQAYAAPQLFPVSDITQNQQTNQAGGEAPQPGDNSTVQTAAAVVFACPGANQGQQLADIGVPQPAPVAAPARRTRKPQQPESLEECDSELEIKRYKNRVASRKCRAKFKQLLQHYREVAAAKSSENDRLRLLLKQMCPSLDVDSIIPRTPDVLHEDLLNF
Chain of Epstein-Barr nuclear antigen 1 (P03211 whole entry): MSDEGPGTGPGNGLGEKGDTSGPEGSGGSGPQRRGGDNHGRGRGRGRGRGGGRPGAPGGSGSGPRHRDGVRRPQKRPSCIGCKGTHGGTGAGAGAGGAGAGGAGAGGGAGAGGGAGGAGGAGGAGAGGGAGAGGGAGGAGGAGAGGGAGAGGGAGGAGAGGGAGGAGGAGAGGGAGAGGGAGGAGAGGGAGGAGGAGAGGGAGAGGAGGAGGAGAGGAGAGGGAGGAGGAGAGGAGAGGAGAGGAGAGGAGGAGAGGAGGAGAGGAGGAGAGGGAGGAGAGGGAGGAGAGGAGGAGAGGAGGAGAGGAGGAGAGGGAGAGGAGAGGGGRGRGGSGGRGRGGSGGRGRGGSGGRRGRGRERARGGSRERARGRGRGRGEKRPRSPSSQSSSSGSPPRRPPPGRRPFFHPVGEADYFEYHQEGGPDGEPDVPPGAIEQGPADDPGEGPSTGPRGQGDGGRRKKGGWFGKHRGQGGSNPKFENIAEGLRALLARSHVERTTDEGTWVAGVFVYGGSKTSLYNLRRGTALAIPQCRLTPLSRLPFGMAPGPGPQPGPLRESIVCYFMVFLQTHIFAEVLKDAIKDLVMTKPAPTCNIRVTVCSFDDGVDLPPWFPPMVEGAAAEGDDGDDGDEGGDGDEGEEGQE
Chain of Protein-tyrosine kinase 2-beta (Q14289 whole entry): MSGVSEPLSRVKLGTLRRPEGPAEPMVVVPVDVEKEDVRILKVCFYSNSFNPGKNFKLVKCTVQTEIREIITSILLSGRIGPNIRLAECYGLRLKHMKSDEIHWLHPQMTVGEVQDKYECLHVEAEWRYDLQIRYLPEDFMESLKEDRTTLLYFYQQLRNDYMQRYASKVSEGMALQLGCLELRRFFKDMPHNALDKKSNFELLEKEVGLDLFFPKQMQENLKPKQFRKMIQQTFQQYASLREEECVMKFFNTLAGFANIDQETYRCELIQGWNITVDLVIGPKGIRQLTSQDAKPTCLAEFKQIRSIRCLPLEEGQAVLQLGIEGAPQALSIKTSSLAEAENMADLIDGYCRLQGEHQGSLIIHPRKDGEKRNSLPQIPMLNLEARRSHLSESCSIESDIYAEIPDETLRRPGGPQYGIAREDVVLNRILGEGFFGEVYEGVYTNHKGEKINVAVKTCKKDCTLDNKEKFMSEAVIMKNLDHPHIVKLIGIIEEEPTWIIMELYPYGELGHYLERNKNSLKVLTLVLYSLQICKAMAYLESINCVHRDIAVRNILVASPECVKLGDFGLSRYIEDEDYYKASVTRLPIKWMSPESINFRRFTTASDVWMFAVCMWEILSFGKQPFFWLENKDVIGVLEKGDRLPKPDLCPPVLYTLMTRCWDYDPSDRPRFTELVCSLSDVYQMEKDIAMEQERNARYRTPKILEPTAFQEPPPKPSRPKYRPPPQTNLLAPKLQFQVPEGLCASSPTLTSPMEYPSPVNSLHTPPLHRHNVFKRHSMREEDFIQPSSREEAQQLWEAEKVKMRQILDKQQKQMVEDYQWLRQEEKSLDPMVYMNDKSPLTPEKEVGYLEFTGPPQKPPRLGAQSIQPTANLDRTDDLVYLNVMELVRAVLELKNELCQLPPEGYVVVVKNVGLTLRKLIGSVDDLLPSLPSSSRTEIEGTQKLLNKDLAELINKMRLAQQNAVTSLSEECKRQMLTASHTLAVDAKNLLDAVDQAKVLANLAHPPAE

CCOC(=O)N1CCc2c(sc(NC(=O)C3COc4ccccc4O3)c2C(N)=O)C1 (stereo unspecified)
IC50 [1]: 15.3 µM (not active)
IC50 [2]: > 111 µM (not active)

COc1cccc(OC(=O)c2sc3ccccc3c2Cl)c1
IC50 [3]: > 17 µM (not active)

CN1CCc2c(sc3ncn4nc(-c5ccccc5O)nc4c23)C1
EC50 [4]: 13.4 µM (active)
IC50 [5]: 17.9 µM (not active)
EC50 [6]: 10.4 µM (active)

CC(=O)Nc1ccc(NC(=O)Cc2sc(-c3cccnc3)nc2-c2ccc(C)cc2)cc1
IC50 [1]: > 5.47 µM (active)
EC50 [7]: 1.28 µM (active)
IC50 [2]: > 111 µM (not active)
EC50 [8]: > 60 µM (not active)

COc1ccc(-c2nc(-c3ccc(O)cc3)[nH]c2-c2ccc(OC)cc2)cc1
IC50 [3]: 9.01 µM (active)

Cc1ccc(C(=O)Nc2ccc(C(F)(F)F)n(C)c2=O)cc1
EC50 [9]: 0.317 µM (active)
EC50 [10]: < 0.1 µM (inconclusive)
EC50 [11]: 0.305 µM (active)
EC50 [12]: 0.311 µM (active)

O=C1c2ccccc2S(=O)(=O)N1CC1CC(c2ccc(Cl)cc2)=NO1 (stereo unspecified)
EC50 [9]: 0.805 µM (active)
EC50 [13]: < 0.1 µM (active)
EC50 [10]: < 0.1 µM (active)
EC50 [14]: 9.96 µM (active)
EC50 [11]: 0.407 µM (active)
EC50 [12]: 0.435 µM (active)
